Tests used:
Adenosine receptor A2a = Adenosine receptor A2a (Rattus norvegicus, UniProt P30543); assay: biochemical
Description: Binding affinity towards adenosine A2A receptor in rat brain striatum

Adenosine receptor A1 = biological target: T1, Adenosine receptor A1 (Rattus norvegicus, UniProt P25099); assay: biochemical
T1 sequence (P25099 whole entry): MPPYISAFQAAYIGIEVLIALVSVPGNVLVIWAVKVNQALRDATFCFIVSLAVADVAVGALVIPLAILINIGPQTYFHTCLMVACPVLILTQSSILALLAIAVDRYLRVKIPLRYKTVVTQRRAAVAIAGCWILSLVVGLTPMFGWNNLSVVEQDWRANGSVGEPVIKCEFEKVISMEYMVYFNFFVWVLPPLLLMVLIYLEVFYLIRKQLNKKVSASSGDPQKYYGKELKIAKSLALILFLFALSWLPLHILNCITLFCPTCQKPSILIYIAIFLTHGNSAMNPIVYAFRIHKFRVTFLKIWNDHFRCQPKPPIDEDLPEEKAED
Description: Binding affinity towards adenosine A1 receptor in rat brain cortex

Adenosine receptor A2a, sequence (P30543 whole entry): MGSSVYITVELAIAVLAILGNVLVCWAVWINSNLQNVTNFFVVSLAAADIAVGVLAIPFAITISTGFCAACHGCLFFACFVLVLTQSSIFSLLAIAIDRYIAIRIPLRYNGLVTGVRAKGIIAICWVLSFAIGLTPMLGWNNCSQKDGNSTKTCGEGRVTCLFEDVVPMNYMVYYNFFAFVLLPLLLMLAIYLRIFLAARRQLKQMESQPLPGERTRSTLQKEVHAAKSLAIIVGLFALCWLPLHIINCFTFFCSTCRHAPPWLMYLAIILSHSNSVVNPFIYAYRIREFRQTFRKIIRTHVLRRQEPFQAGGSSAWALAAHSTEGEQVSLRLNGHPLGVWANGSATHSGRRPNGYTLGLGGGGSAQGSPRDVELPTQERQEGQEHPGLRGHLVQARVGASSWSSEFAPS

SMILES | Ki (Adenosine receptor A2a) | Ki (Adenosine receptor A1)
Nc1nc(OC2CCCC2)nc2c1ncn2[C@@H]1O[C@H](CO)[C@@H](O)[C@H]1O | 1000 nM | 14000 nM
CCOc1nc(N)c2ncn([C@@H]3O[C@H](CO)[C@@H](O)[C@H]3O)c2n1 | 1500 nM | 1300 nM
CC(C)(C)OC(=O)C1CCCN1C[C@@H](O)[C@H](Cc1ccccc1)NC(=O)[C@H](CC(N)=O)NC(=O)OCc1ccccc1 (some centres undefined) | 2.2 nM | 130 nM
C[C@@H](CCOc1nc(N)c2ncn(C3O[C@H](CO)[C@H](O)[C@@H]3O)c2n1)c1ccccc1 (some centres undefined) | 1700 nM | 1600 nM
Nc1nc(OCCCc2ccccc2)nc2c1ncn2[C@@H]1O[C@H](CO)[C@@H](O)[C@H]1O | 1200 nM | 3600 nM
Nc1nc(OCCCCc2ccccc2)nc2c1ncn2[C@@H]1O[C@H](CO)[C@@H](O)[C@H]1O | 170 nM | 2400 nM
Nc1nc(OCCC2CCCCC2)nc2c1ncn2[C@@H]1O[C@H](CO)[C@@H](O)[C@H]1O | 22 nM | 1600 nM
Nc1nc(OCC2CCCCC2)nc2c1ncn2C1O[C@H](CO)[C@@H](O)[C@H]1O (some centres undefined) | 3200 nM | 3000 nM
CCCOc1nc(N)c2ncn(C3O[C@H](CO)[C@@H](O)[C@H]3O)c2n1 (some centres undefined) | 360 nM | 1200 nM
CCNC(=O)[C@H]1OC(n2cnc3c(N)nc(C#CNCc4ccccc4)nc32)[C@H](O)[C@@H]1O (some centres undefined) | 1130 nM | 8600 nM
COc1cc(CCOc2nc(N)c3ncn(C4O[C@H](CO)[C@@H](O)[C@H]4O)c3n2)cc(OC)c1OC (some centres undefined) | 330 nM | 5000 nM
CCC(CC)CCOc1nc(N)c2ncn(C3O[C@H](CO)[C@@H](O)[C@H]3O)c2n1 (some centres undefined) | 530 nM | 1490 nM
CCCCCCOc1nc(N)c2ncn(C3O[C@H](CO)[C@@H](O)[C@H]3O)c2n1 (some centres undefined) | 160 nM | 890 nM
Nc1nc(C#CCCC2CCCCC2)nc2c1ncn2C1O[C@H](CO)[C@@H](O)[C@H]1O (some centres undefined) | 26 nM | 
Cc1ccc(CCOc2nc(N)c3ncn(C4O[C@H](CO)[C@@H](O)[C@H]4O)c3n2)cc1 (some centres undefined) | 11 nM | 49 nM
CC(C)Oc1nc(N)c2ncn(C3O[C@H](CO)[C@@H](O)[C@H]3O)c2n1 (some centres undefined) | 7400 nM | 20000 nM
COc1cccc(CCOc2nc(N)c3ncn(C4O[C@H](CO)[C@@H](O)[C@H]4O)c3n2)c1 (some centres undefined) | 320 nM | 760 nM
Nc1nc(OCc2ccccc2)nc2c1ncn2C1O[C@H](CO)[C@@H](O)[C@H]1O (some centres undefined) | 2200 nM | 600 nM
CC(C)COc1nc(N)c2ncn(C3O[C@H](CO)[C@@H](O)[C@H]3O)c2n1 (some centres undefined) | 700 nM | 2600 nM
Nc1nc(C#CCCC2CCCC2)nc2c1ncn2C1O[C@H](CO)[C@@H](O)[C@H]1O (some centres undefined) | 3.4 nM | 
Nc1nc(OCCCCCc2ccccc2)nc2c1ncn2C1O[C@H](CO)[C@@H](O)[C@H]1O (some centres undefined) | 53 nM | 960 nM
CCC(CC)COc1nc(N)c2ncn(C3O[C@H](CO)[C@@H](O)[C@H]3O)c2n1 (some centres undefined) | 4600 nM | 2700 nM
Nc1nc(OCCCC2CCCCC2)nc2c1ncn2C1O[C@H](CO)[C@@H](O)[C@H]1O (some centres undefined) | 22 nM | 2800 nM
CCCCOc1nc(N)c2ncn(C3O[C@H](CO)[C@@H](O)[C@H]3O)c2n1 (some centres undefined) | 270 nM | 2500 nM
CCNC(=O)[C@H]1OC(n2cnc3c(N)nc(CC4CCC(CO)CC4)nc32)[C@H](O)[C@@H]1O (some centres undefined) | 0.48 nM | 0.84 nM
Nc1nc(OCCO)nc2c1ncn2C1O[C@H](CO)[C@@H](O)[C@H]1O (some centres undefined) | 690 nM | 72 nM
CCNC(=O)[C@H]1OC(n2cnc3c(N)nc(C#CNCCc4ccc(F)cc4)nc32)[C@H](O)[C@@H]1O (some centres undefined) | 7.7 nM | 1180 nM
Nc1nc(Oc2ccccc2)nc2c1ncn2C1O[C@H](CO)[C@@H](O)[C@H]1O (some centres undefined) | 5700 nM | 3500 nM
CC[C@H](COc1nc(N)c2ncn(C3O[C@H](CO)[C@@H](O)[C@H]3O)c2n1)c1ccccc1 (some centres undefined) | 430 nM | 2300 nM

The remaining compounds from weak to strong by Ki (Adenosine receptor A2a), led by results:

Ki (Adenosine receptor A2a) | Ki (Adenosine receptor A1) | SMILES
150 nM | 460 nM | CCCCCOc1nc(N)c2ncn(C3O[C@H](CO)[C@@H](O)[C@H]3O)c2n1 (some centres undefined)
130 nM | 2100 nM | CC(C)CCCOc1nc(N)c2ncn(C3O[C@H](CO)[C@@H](O)[C@H]3O)c2n1 (some centres undefined)
120 nM | 1600 nM | Nc1nc(OCCC2CCCC2)nc2c1ncn2C1O[C@H](CO)[C@@H](O)[C@H]1O (some centres undefined)
110 nM | 180 nM | Nc1nc(OCCc2cccc(F)c2)nc2c1ncn2[C@@H]1O[C@H](CO)[C@@H](O)[C@H]1O (stereo in doubt; 92)
109 nM |  | Nc1nc(C#Cc2ccccc2)nc2c1ncn2[C@@H]1O[C@H](CO)[C@@H](O)[C@H]1O
97 nM | 500 nM | Nc1nc(OCCc2ccc(F)cc2)nc2c1ncn2[C@@H]1O[C@H](CO)[C@@H](O)[C@H]1O
88.1 nM | 38.1 nM | COCc1nc(N)c2ncn(C3O[C@H](CO)[C@@H](O)[C@H]3O)c2n1 (some centres undefined)
76 nM | 250 nM | Nc1nc(OCCc2cccc(Cl)c2)nc2c1ncn2C1O[C@H](CO)[C@@H](O)[C@H]1O (some centres undefined)
71 nM | 12100 nM | CCNC(=O)[C@H]1OC(n2cnc3c(N)nc(C#CN(C)CCc4ccccc4)nc32)[C@H](O)[C@@H]1O (some centres undefined)
61 nM | 140 nM | Cc1cccc(CCOc2nc(N)c3ncn(C4O[C@H](CO)[C@@H](O)[C@H]4O)c3n2)c1 (some centres undefined)
58 nM | 150 nM | Nc1nc(OCCc2cccc(F)c2)nc2c1ncn2[C@@H]1O[C@H](CO)[C@@H](O)[C@H]1O (stereo in doubt; 24)
56 nM | 520 nM | Nc1nc(OCCc2ccccc2Cl)nc2c1ncn2C1O[C@H](CO)[C@@H](O)[C@H]1O (some centres undefined)
45 nM | 4880 nM | CCNC(=O)[C@H]1OC(n2cnc3c(N)nc(C#CNCCc4ccc(CC(=O)O)cc4)nc32)[C@H](O)[C@@H]1O (some centres undefined)
42 nM |  | CCNC(=O)[C@H]1OC(n2cnc3c(N)nc(NCCc4ccc(OCC(=O)O)cc4)nc32)[C@H](O)[C@@H]1O (some centres undefined)
40.1 nM | 81.4 nM | Nc1nc(CCO)nc2c1ncn2C1O[C@H](CO)[C@@H](O)[C@H]1O (some centres undefined)
40 nM | 380 nM | COc1ccc(CCOc2nc(N)c3ncn(C4O[C@H](CO)[C@@H](O)[C@H]4O)c3n2)cc1OC (some centres undefined)
39 nM | 450 nM | Cc1ccccc1CCOc1nc(N)c2ncn(C3O[C@H](CO)[C@@H](O)[C@H]3O)c2n1 (some centres undefined)
37.6 nM |  | C#Cc1nc(N)c2ncn(C3O[C@H](CO)[C@@H](O)[C@H]3O)c2n1 (some centres undefined)
37 nM |  | Nc1nc(C#CCCc2ccccc2)nc2c1ncn2[C@@H]1O[C@H](CO)[C@@H](O)[C@H]1O
36 nM | 190 nM | COc1ccccc1CCOc1nc(N)c2ncn(C3O[C@H](CO)[C@@H](O)[C@H]3O)c2n1 (some centres undefined)
32 nM | 480 nM | COc1ccc(CCOc2nc(N)c3ncn(C4O[C@H](CO)[C@@H](O)[C@H]4O)c3n2)cc1 (some centres undefined)

Ki (Adenosine receptor A2a) | Ki (Adenosine receptor A1) | SMILES
22 nM | 89 nM | Nc1nc(OCCc2ccc(Cl)cc2)nc2c1ncn2[C@@H]1O[C@H](CO)[C@@H](O)[C@H]1O [SONEDENOSON]
21.2 nM | 186 nM | CCc1nc(N)c2ncn(C3O[C@H](CO)[C@@H](O)[C@H]3O)c2n1 (some centres undefined)
20.5 nM | 10.1 nM | Nc1nc(CO)nc2c1ncn2C1O[C@H](CO)[C@@H](O)[C@H]1O (some centres undefined)
20.1 nM | 292 nM | CCNC(=O)[C@H]1OC(n2cnc3c(N)nc(CC4CCC(C(=O)O)CC4)nc32)[C@H](O)[C@@H]1O (some centres undefined)
18 nM | 1100 nM | Nc1nc(OCCCCC2CCCCC2)nc2c1ncn2C1O[C@H](CO)[C@@H](O)[C@H]1O (some centres undefined)
17 nM | 130 nM | Nc1nc(OCCc2ccccc2)nc2c1ncn2[C@@H]1O[C@H](CO)[C@@H](O)[C@H]1O
12.8 nM | 244 nM | CCOCCCc1nc(N)c2ncn(C3O[C@H](CO)[C@@H](O)[C@H]3O)c2n1 (some centres undefined)
12.1 nM | 202 nM | CCCCCCc1nc(N)c2ncn(C3O[C@H](CO)[C@@H](O)[C@H]3O)c2n1 (some centres undefined)
12 nM |  | Nc1nc(C#CC2CCCC2)nc2c1ncn2[C@@H]1O[C@H](CO)[C@@H](O)[C@H]1O
10.6 nM |  | CCCOCc1nc(N)c2ncn(C3O[C@H](CO)[C@@H](O)[C@H]3O)c2n1 (some centres undefined)
10.2 nM | 128 nM | CCCOCCc1nc(N)c2ncn(C3O[C@H](CO)[C@@H](O)[C@H]3O)c2n1 (some centres undefined)
10 nM |  | Nc1nc(C#CC2CCCCC2)nc2c1ncn2C1O[C@H](CO)[C@@H](O)[C@H]1O (some centres undefined)
9.7 nM | 473 nM | CCNC(=O)[C@H]1OC(n2cnc3c(N)nc(C#CNCCc4ccccc4)nc32)[C@H](O)[C@@H]1O (some centres undefined)
9 nM | 1260 nM | CCNC(=O)[C@H]1OC(n2cnc3c(N)nc(C#CNCCc4ccc(CC(=O)OC)cc4)nc32)[C@H](O)[C@@H]1O (some centres undefined)
7.5 nM |  | CCNC(=O)[C@H]1OC(n2cnc3c(N)nc(NCCc4ccc(Cl)cc4)nc32)[C@H](O)[C@@H]1O (some centres undefined)
7.5 nM | 154 nM | CCCc1nc(N)c2ncn(C3O[C@H](CO)[C@@H](O)[C@H]3O)c2n1 (some centres undefined)
6.2 nM | 14 nM | CCNC(=O)[C@H]1OC(n2cnc3c(N)nc(CC4CCC(COC(C)=O)CC4)nc32)[C@H](O)[C@@H]1O (some centres undefined)
5.4 nM |  | CCCCCC#Cc1nc(N)c2ncn([C@@H]3O[C@H](CO)[C@@H](O)[C@H]3O)c2n1
4.5 nM | 28.1 nM | CCNC(=O)[C@H]1OC(n2cnc3c(N)nc(CC4CCC(C(=O)OC)CC4)nc32)[C@H](O)[C@@H]1O (some centres undefined)
2.8 nM | 126 nM | CCCCc1nc(N)c2ncn(C3O[C@H](CO)[C@@H](O)[C@H]3O)c2n1 (some centres undefined)

From ChEMBL document CHEMBL1134790, “Design, synthesis, and evaluation of novel A2A adenosine receptor agonists” (J Med Chem, 2001)
